Measured values from patent US4255433A, “(+)-(3-Methyl-4-oxo-5N-piperidinothiazolidin-2-ylidene)acetic acid esters, method of preparation and use” (Godecke Aktiengesellschaft, priority 1979, dated 1981).
“Also recorded” adds a separate entry of the source. Read-outs that look alike come from different tables or passages of the source.

Key:
[1] = cited from earlier work
[2] = Acute toxicity in rats (intragastral, 7 days observation, LD50 by Weber's probit analysis); format: in vivo, rat (SIV 50 strain); conditions: rat, in vivo, po
Protocol: (§1) The experimental animals used were male and female rats of the SIV 50 strain with a body weight of 115 to 170 g and of 100 to 160 g, respectively. All the animals were fasted for 20 hours before the commencement of the experiments, water was available ad libitum. There were 10 animals in each dosage group. The test substances were administered intragastrally with a metal probe in the form of 1% tragacanth slurry suspensions (4 ml/100 g of body weight).
(§2) The animals were observed over a period of time of 7 days. For the calculation of the LD50 with the related confidence limits, use was made of Weber's probit analysis (see Grundriss der Biologischen Statistik, pub. Gustav Fischer Verlag, Jena, 1-72).

awake rats (diuresis) = test: Diuresis in awake rats (urine volume within the first 4 hours); format: in vivo, rat (SIV 50 strain); conditions: intragastral, urine volume in 4 hours, FIG. 2
Protocol: The experimental animals used were male rats of the SIV 50 strain which were kept under constant conditions. Feed was removed 36 hours before the commencement of the experiments but water was available until just before the commencement of the experiment. The test substances were administered intragastrally as suspensions in 1% tragacanth slurry which has been prepared with a 0.2% sodium chloride solution (1 ml/100 g body weight). In addition, the animals were given intragastrally 4 ml/100 g body weight a 0.2% sodium chloride solution. The animals were kept individually in metabolic cages in order to determine the urine volumes within the first 4 hours.

[3] = test system: rats with renovascular high blood pressure; test: Renovascular high blood pressure in rats; format: in vivo, rat (SIV 50 strain); design: average blood pressure: unit: mmHg
From the text: The antihypertensive properties were investigated in rats which, after experimental ligature of the kidney blood flow, had developed a renovascular high blood pressure. The experimental animals used were male rats of the SIV 50 strain which, under ether narcosis, had been monolaterally nephrectomised and the contralateral renal arteries of which had been stenosed 2 days later with the help of silver clips. After 6 to 8 weeks, these animals developed a high blood pressure. The blood pressure measurement took place bloodlessly on the root of the tail of the animals. The test substances were administered intragastrally once daily as tragacanth slurry suspensions for 33 days.

[4] = test system: male and female rats of the SIV 50 strain; test: Acute toxicity in rats (intragastral, 7 days observation, LD50 by Weber's probit analysis); format: in vivo, rat (SIV 50 strain); conditions: rat
Protocol: as §1, §2

[5] = Racemization of (+)-ozolinone in 0.1N hydrochloric acid and in chloroform; format: physicochemical; conditions: read-out: degree of racemization
Protocol: Esterification of the known, optically-active (+)-(3-methyl-4-oxo-5N-piperidinothiazolidin-2-ylidene)-acetic acid [(+)-ozolinone (see Federal Republic of Germany Patent Specification No. 26 58 858)] also cannot be carried out with agents which can be used on a large scale because it racemizes under the esterification conditions. Thus, for example, (+)-ozolinone racemizes to an extent of 15% in 0.1N hydrochloric acid in less than 1 hour. Even in chloroform, in the same period of time, the degree of racemization which occurs is about 10%.

mice = conditions: male mice; literature (Meng-Loew, Diuretika, 1974); cited from earlier work
[6] = 100 mg/kg i.g., 2nd day after treatment
[7] = 100 mg/kg i.g., 20th day of treatment
[8] = 100 mg/kg i.g., before treatment
[9] = 200 mg/kg i.g., 8th day after treatment
[10] = 200 mg/kg i.g., 10th day of treatment
[11] = 200 mg/kg i.g., 17th day of treatment
[12] = 200 mg/kg i.g., 33rd day of treatment
[13] = 200 mg/kg i.g., before treatment

What does the source list for `CCOC(=O)C=C1SC(N2CCCCC2)C(=O)N1C` (racemic) [Compound A, ethyl (±)-(3-methyl-4-oxo-5N-piperidinothiazolidin-2-ylidene)acetate]?
antihypertensive activity (in words) ([1]; published): good antihypertensive activity; diuretic / saluretic activity (in words) ([1]; published): strong diuretic and saluretic properties; antihypertensive effect at subdiuretic doses (in words) ([1]; subdiuretic doses, DE 25 32 180): even at subdiuretic doses, an antihypertensive effect occurs; LD50 at 168 h ([2]; female rat): 10200 mg/kg; LD50 at 168 h ([2]; male rat): 11000 mg/kg; diuretic action (in words) (awake rats (diuresis)): diuretically effective in a dosage dependent manner; average blood pressure [3, 6]: 195; average blood pressure [3, 7]: 175; average blood pressure [3, 8]: 197; average blood pressure [3, 9]: 182; average blood pressure [3, 10]: 171; average blood pressure [3, 11]: 182; average blood pressure [3, 12]: 174; average blood pressure [3, 13]: 187

What does the source list for `CCOC(=O)C=C1SC(N2CCCCC2)C(=O)N1C` (single isomer, unassigned) [Compound B, ethyl (+)-(3-methyl-4-oxo-5N-piperidinothiazolidin-2-ylidene)acetate]?
LD50 at 168 h ([2]; bound stated): > 2000 mg/kg; LD50 at 168 h ([2]; female rat): 4230 mg/kg; LD50 at 168 h ([2]; male rat): 3650 mg/kg; acute toxicity (in words) [4]: more toxic than Compound A; also recorded: extraordinarily nontoxic; diuretic action (in words) (awake rats (diuresis)): diuretically inactive; also recorded: does not possess any diuretic action at all; average blood pressure [3, 6]: 190; average blood pressure [3, 7]: 164; average blood pressure [3, 8]: 189; average blood pressure [3, 9]: 182; average blood pressure [3, 10]: 159; average blood pressure [3, 11]: 150; average blood pressure [3, 12]: 156; average blood pressure [3, 13]: 185; antihypertensive action (in words) ([3]; rats with renovascular high blood pressure): possesses the strongest antihypertensive action and that this effect is dosage dependent

Which “diuretic action (in words)” value (awake rats (diuresis)) does the source give for `CCOC(=O)C=C1SC(N2CCCCC2)C(=O)N1C` (single isomer, unassigned) [Compound C, ethyl (-)-(3-methyl-4-oxo-5N-piperidinothiazolidin-2-ylidene)acetate] here?
The value was “diuretically effective in a dosage dependent manner”.

And the average blood pressure [3, 6]?
The average blood pressure was 201.

And the average blood pressure [3, 7]?
Its average blood pressure is 176.

And the average blood pressure [3, 8]?
Its average blood pressure is 191.

What about the average blood pressure [3, 9] of the same compound?
Its average blood pressure is 190.

And the average blood pressure [3, 10]?
The average blood pressure was 178.

And the average blood pressure [3, 11]?
Its average blood pressure is 176.

What about the average blood pressure [3, 12] of the same compound?
The average blood pressure was 164.

What about the average blood pressure [3, 13] of the same compound?
Its average blood pressure is 192.

With `CN1C(=O)C(N2CCCCC2)SC1=CC(=O)O` (single isomer, unassigned; (+)) [(+)-ozolinone, (+)-(3-methyl-4-oxo-5N-piperidinothiazolidin-2-ylidene)-acetic acid] as the compound, how does the degraded at 1 h ([5]; 0.1N hydrochloric acid, less than 1 hour) read?
Its degraded at 1 h is 15%.

And the degraded at 1 h ([5]; chloroform, same period of time (less than 1 hour))?
The degraded at 1 h was ~10%.

For `NS(=O)(=O)c1cc2c(cc1Cl)NCNS2(=O)=O` [Compound D, 6-chloro-3,4-dihydro-2H-1,2,4-benzothiadiazine-7-sulphonamide 1,1-dioxide], which LD50 (mice) is on record?
The LD50 was 3,080 mg/kg.

With `C=C(CC)C(=O)c1ccc(OCC(=O)O)c(Cl)c1Cl` [Compound F, [2,3-dichloro-4-(2-methylene-1-oxobutyl)phenoxy]acetic acid] as the compound, how does the LD50 (mice) read?
Its LD50 is 600 mg/kg.
